Where two headings read alike, the source gives them in different places.
How the values were obtained:
ACL [1] = molecular target: T1, ACL (Homo sapiens (Human), UniProt P53396); test: ADP-Glo Assay
Target sequence in this assay (P53396 other isoform, or with tags, fused parts or gaps isoform P53396-2): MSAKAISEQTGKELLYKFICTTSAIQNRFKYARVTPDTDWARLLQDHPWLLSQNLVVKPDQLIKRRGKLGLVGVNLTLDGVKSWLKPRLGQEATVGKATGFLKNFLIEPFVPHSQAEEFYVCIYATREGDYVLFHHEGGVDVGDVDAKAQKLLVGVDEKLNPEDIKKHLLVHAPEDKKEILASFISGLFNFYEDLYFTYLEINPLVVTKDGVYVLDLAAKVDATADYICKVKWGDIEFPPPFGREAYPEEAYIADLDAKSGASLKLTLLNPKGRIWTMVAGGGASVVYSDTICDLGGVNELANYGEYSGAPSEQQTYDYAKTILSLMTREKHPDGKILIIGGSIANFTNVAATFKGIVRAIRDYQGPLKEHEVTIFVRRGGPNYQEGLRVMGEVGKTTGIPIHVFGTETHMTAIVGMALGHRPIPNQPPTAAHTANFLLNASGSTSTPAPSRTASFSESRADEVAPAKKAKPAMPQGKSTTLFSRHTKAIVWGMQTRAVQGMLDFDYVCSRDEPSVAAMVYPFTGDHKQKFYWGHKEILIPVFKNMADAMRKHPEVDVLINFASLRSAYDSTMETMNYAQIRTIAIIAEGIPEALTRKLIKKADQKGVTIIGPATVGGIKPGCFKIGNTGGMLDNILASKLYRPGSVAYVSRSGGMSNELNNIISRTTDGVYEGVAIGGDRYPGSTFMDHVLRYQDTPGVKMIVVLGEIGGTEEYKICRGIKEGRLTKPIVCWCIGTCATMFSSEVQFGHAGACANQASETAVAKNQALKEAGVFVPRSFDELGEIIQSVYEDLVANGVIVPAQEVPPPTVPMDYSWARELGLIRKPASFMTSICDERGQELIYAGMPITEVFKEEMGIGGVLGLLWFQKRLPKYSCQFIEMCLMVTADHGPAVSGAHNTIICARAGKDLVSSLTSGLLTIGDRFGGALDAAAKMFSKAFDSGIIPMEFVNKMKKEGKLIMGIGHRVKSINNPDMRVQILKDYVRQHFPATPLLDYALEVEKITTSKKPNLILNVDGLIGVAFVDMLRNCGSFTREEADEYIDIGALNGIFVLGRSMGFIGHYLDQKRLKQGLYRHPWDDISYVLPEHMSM

ACL [2] = molecular target: T1, ACL; test: ACLY-MDH Coupled Assay
Target sequence in this assay (P53396 whole entry, species assumed): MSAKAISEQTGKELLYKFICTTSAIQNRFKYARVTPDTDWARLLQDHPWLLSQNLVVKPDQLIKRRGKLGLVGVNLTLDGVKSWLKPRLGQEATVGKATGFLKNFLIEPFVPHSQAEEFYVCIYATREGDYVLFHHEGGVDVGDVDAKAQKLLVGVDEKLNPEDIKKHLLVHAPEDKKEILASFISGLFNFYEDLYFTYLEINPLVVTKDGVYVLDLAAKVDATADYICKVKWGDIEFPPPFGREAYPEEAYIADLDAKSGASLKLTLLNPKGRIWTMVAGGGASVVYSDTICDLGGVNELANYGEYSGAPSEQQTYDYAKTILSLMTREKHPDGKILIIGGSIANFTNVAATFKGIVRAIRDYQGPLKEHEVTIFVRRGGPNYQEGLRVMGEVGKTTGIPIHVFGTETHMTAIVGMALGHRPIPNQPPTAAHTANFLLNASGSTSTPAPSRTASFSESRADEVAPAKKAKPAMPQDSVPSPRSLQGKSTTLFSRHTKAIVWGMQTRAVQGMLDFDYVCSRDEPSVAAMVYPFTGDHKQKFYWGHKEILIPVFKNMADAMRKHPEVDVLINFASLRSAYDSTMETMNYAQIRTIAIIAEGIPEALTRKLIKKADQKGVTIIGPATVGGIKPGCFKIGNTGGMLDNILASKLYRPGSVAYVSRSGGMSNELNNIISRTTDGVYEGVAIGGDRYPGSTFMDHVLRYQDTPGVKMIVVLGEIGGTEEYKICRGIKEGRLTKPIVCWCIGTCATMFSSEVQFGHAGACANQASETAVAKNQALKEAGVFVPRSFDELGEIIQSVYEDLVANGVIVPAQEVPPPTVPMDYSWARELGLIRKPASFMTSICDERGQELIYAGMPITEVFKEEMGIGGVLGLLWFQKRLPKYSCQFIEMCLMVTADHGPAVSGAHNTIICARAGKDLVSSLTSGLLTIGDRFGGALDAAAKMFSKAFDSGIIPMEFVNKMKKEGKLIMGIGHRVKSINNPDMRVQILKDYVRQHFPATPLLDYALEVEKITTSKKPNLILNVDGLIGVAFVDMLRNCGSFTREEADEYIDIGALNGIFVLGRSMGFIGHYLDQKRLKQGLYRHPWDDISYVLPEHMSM
Experimental: Compounds of the present invention were evaluated in an ACLY Coupled Assay.
The assay protocol for the Coupled Assay (below) was followed:
b) Add 1 μL cpds to 96 assay plate, Test cpd conc: 100/30/10 μM top dose, 3 folds dilution, 10+0+control (control: buffer without ACL+DMSO) points, 1000 rpm for 1 min, incubation at 25° C. for 60 min

HepG2 cells [3] = conditions: Homo sapiens, HepG2, read-out: ACLY HepG2 14C-Pyruvate Assay serum free IC50 FA (IC50) [μM]
Experimental: ACLY HepG2 ^14C-Pyruvate Incorporation Serum-Free Assay (IC50 Fatty
The protocol of the assay (below) was followed:
(§1) After 48 hours, change medium with fresh growth medium.
(§2) After 18 hours, replaced medium using 0.5 mL fresh medium (5.5 mM Glucose, without FBS, 1% PS, without Pyruvate) containing Compounds or 0.5% DMSO, incubated at 37° C., 5% CO2 for 1 hour.
(§3) Add 3 μci of [14C]-pyruvate per well to the cell samples were incubated at 37° C., 5% CO2 for 5 hours.
Medium was removed and placed into a 15 mL centrifuge tube. Add 0.5 mL of 0.1M NaOH to each well and then transfer the cell lysates into the corresponding 15 mL centrifuge tubes. 1.0 mL of EtOH and 0.17 mL 50% KOH were added to 15 mL tubes containing medium and cell suspensions, then shaking tube gently. […] Saponification 15 mL tubes containing medium and cell suspensions were incubated at 90° C. for 1 hour, then cooled to room temperature. […] Cholesterol Extraction 5 mL of petroleum ether was added per tube to extract Cholesterol, shaken vigorously, centrifuged at 1000 rpm for 5 min, and ˜5 mL of the petroleum ether layer was transferred to a new glass tube (18*180 mm). […] Acidification The samples in 15 mL tube were acidified directly with 1 mL concentrated HCl, make sure pH was below 1. […] Fatty Acids Extraction 5 mL of petroleum ether was added per tube, shaken vigorously, centrifuged at 1000 rpm for 5 min, 5 mL of the petroleum ether layer was transferred to the corresponding glass tube. […] Repeat the Step 8 10. Count The petroleum ether extracts were pooled and evaporated to dryness overnight. The residue from the petroleum ether fractions were resuspended in 500 μL of chloroform-hexane (1:1) containing 420 μg of linoleic acid as a carrier. Add 200 μL of resuspending (chloroform-hexane (1:1) containing 168 μg of linoleic acid) to 2 mL Ultima Gold™, after 30 min, count on a scintillation counter.

HepG2 cells [4] = conditions: Homo sapiens, HepG2, read-out: ACLY HepG2 14C-Pyruvate Assay serum free IC50 Cholesterol (IC50) [μM]
Experimental: ACLY HepG2 ^14C-Pyruvate Incorporation Serum-Free Assay (IC50 Cholesterol and Fatty Acid Synthesis)
Compounds of the present invention were evaluated in a HepG2 ^14C-pyruvate incorporation assay. The protocol below was followed:
as §1, §2, §3
Medium was removed and placed into a 15 mL centrifuge tube. Add 0.5 mL of 0.1M NaOH to each well and then transfer the cell lysates into the corresponding 15 mL centrifuge tubes. 1.0 mL of EtOH and 0.17 mL 50% KOH were added to 15 mL tubes containing medium and cell suspensions, then shaking tube gently. […] Saponification 15 mL tubes containing medium and cell suspensions were incubated at 90° C. for 1 hour, then cooled to room temperature. […] Cholesterol Extraction 5 mL of petroleum ether was added per tube to extract Cholesterol, shaken vigorously, centrifuged at 1000 rpm for 5 min, and ˜5 mL of the petroleum ether layer was transferred to a new glass tube (18*180 mm). […] Acidification The samples in 15 mL tube were acidified directly with 1 mL concentrated HCl, make sure pH was below 1. […] Fatty Acids Extraction 5 mL of petroleum ether was added per tube, shaken vigorously, centrifuged at 1000 rpm for 5 min, 5 mL of the petroleum ether layer was transferred to the corresponding glass tube. […] Count The petroleum ether extracts were pooled and evaporated to dryness overnight. The residue from the petroleum ether fractions were resuspended in 500 μL of chloroform-hexane (1:1) containing 420 μg of linoleic acid as a carrier. Add 200 μL of resuspending (chloroform-hexane (1:1) containing 168 μg of linoleic acid) to 2 mL Ultima Gold™, after 30 min, count on a scintillation counter.

[5] = read-out: ACL-ADP-Glo (IC50), 3 nM ACL, 15 μM ATP, 3 μM CoA, 300 μM Citrate
[6] = read-out: ACL-MDH Coupled Assay (IC50), 8 nM ACL, 60 μM CoA Na2, 85 μM Citrate, 250 μM ATP, 250 μM NADH

Row | IC50 (ACL [1]) | IC50 (ACL [2]) | IC50 (HepG2 cells [3]) | IC50 (HepG2 cells [4]) | IC50 (ACL [1]; [5]) | IC50 (ACL [2]; [6]) | SMILES | IC50 (ACL [1]; read-out: ACL-ADP-Glo (IC50))
1 | – | – | > 10 µM | 1 to 5 µM | < 50 nM | < 50 nM | O=S(=O)(Nc1cc(-c2ccccc2)c(F)cc1F)c1cc(Br)cc(Cl)c1O [I-88, 5-bromo-3-chloro-N-[4,6-difluoro-[1,1-biphenyl]-3-yl]-2-hydroxybenzene-1-sulfonamide] | –
2 | 500 to 20000 nM | 500 to 30000 nM | > 10 µM | 1 to 5 µM | – | – | COC(=O)c1cc(Cl)c(O)c(S(=O)(=O)Nc2ccc(F)c(-c3ccccc3)c2F)c1 [I-110, Methyl 3-chloro-5-[(2,4-difluoro-3-phenylphenyl)sulfamoyl]-4-hydroxybenzoate] | –
3 | 500 to 20000 nM | 500 to 30000 nM | > 10 µM | 1 to 5 µM | – | – | O=S(=O)(Nc1ccc(-c2ccccn2)cc1F)c1cc(Cl)cc(Cl)c1O [I-235, 3,5-dichloro-N-(2-fluoro-4-(pyridin-2-yl)phenyl)-2-hydroxybenzenesulfonamide] | –
4 | 50 to 500 nM | 50 to 500 nM | 1 to 10 µM | 1 to 5 µM | – | – | O=C(O)c1ccc(-c2cccs2)cc1NS(=O)(=O)c1cc(Cl)cc(Cl)c1 [I-275, 2-((3,5-dichlorophenyl)sulfonamido)-4-(thiophen-2-yl)benzoic acid] | –
5 | – | – | > 10 µM | 1 to 5 µM | < 50 nM | < 50 nM | CC(C)OC(=O)c1cc(Cl)c(O)c(S(=O)(=O)Nc2cc(-c3ccccc3)c(F)cc2F)c1 [I-86, propan-2-yl 3-chloro-5-[(2,4-difluoro-5-phenylphenyl)sulfamoyl]-4-hydroxybenzoate] | –
6 | 50 to 500 nM | 50 to 500 nM | 1 to 10 µM | 1 to 5 µM | – | – | COc1c(Cl)cc(C(F)(F)F)cc1S(=O)(=O)Nc1cc(-c2ccccc2)ccc1C(=O)O [I-296, 3-((3-chloro-2-methoxy-5-(trifluoromethyl)phenyl)sulfonamido)-[1,1′-biphenyl]-4-carboxylic Acid] | –
7 | 500 to 20000 nM | 500 to 30000 nM | 1 to 10 µM | 1 to 5 µM | – | – | O=C(O)c1ccc(C2CC2)cc1NS(=O)(=O)c1cc(Cl)cc(C(F)(F)F)c1 [I-344, 2-((3-chloro-5-(trifluoromethyl)phenyl)sulfonamido)-4-cyclopropylbenzoic acid] | –
8 | 50 to 500 nM | 50 to 500 nM | 1 to 10 µM | 1 to 5 µM | – | – | O=C(O)c1ccc(-c2ccccc2)cc1NS(=O)(=O)c1cc(Cl)cc(Cl)c1 [I-208, 3-((3,5-dichlorophenyl)sulfonamido)-[1,1′-biphenyl]-4-carboxylic Acid] | –
9 | – | – | > 10 µM | 1 to 5 µM | < 50 nM | < 50 nM | COC(=O)c1cc(Cl)c(O)c(S(=O)(=O)Nc2cc(C(C)C)c(F)cc2F)c1 [I-198, Methyl 3-chloro-5-(N-(2,4-difluoro-5-isopropylphenyl)sulfamoyl)-4-hydroxybenzoate] | –
10 | 500 to 20000 nM | 500 to 30000 nM | 1 to 10 µM | 1 to 5 µM | – | – | O=C(Nc1cc(-c2ccccc2)ccc1C(=O)O)c1cc(Cl)cc(Cl)c1 [I-260, 3-(3,5-dichlorobenzamido)-[1,1′-biphenyl]-4-carboxylic Acid] | –
11 | 50 to 500 nM | 50 to 500 nM | 1 to 10 µM | 1 to 5 µM | – | – | COCc1cc(Cl)c(O)c(S(=O)(=O)Nc2cc(-c3ccccc3)c(F)cc2F)c1 [I-91, 3-chloro-N-(2,4-difluoro-5-phenylphenyl)-2-hydroxy-5-(methoxymethyl)benzene-1-sulfonamide] | –
12 | – | 50 to 500 nM | > 10 µM | 1 to 5 µM | < 50 nM | – | O=C(Oc1c(Cl)cc(C(=O)N2CCC2)cc1S(=O)(=O)Nc1cc(-c2ccccc2)c(F)cc1F)C1CC1 [I-236, 4-(azetidine-1-carbonyl)-2-chloro-6-(N-(4,6-difluoro-[1,1′-biphenyl]-3-yl)sulfamoyl)phenyl cyclopropanecarboxylate] | –
13 | – | – | > 10 µM | 1 to 5 µM | < 50 nM | < 50 nM | O=C(c1cc(Cl)c(O)c(S(=O)(=O)Nc2cc(-c3ccccc3)c(F)cc2F)c1)N1CCC1 [I-98, 5-(azetidine-1-carbonyl)-3-chloro-N-(4,6-difluoro-[1,1′-biphenyl]-3-yl)-2-hydroxybenzenesulfonamide] | –
14 | 500 to 20000 nM | 500 to 30000 nM | > 10 µM | 1 to 5 µM | – | – | O=C(O)c1ccc(-c2ccccc2)cc1NS(=O)(=O)c1cccc(-n2cnnn2)c1 [I-372] | –
15 | 500 to 20000 nM | 500 to 30000 nM | > 10 µM | 1 to 5 µM | – | – | O=S(=O)(Nc1cc(-c2ccccc2)c(F)cc1F)c1cc(CN2CCC2)cc(Cl)c1O [I-272, 5-(azetidin-1-ylmethyl)-3-chloro-N-(4,6-difluoro-[1,1′-biphenyl]-3-yl)-2-hydroxybenzenesulfonamide] | –
16 | 50 to 500 nM | 50 to 500 nM | 1 to 10 µM | 1 to 5 µM | – | – | CC(C)C(=O)Oc1c(Cl)cc(-c2cncs2)cc1S(=O)(=O)Nc1cc(-c2ccccc2)c(F)cc1F [I-213, 2-chloro-6-(N-(4,6-difluoro-[1,1′-biphenyl]-3-yl)sulfamoyl)-4-(thiazol-5-yl)phenyl Isobutyrate] | –
17 | 50 to 500 nM | 50 to 500 nM | 1 to 10 µM | 1 to 5 µM | – | – | CCOc1c(Cl)cc(Cl)cc1S(=O)(=O)Nc1cc(-c2ccccc2)ccc1C(=O)O [I-348, 3-((3,5-dichloro-2-ethoxyphenyl)sulfonamido)-[1,1′-biphenyl]-4-carboxylic Acid] | –
18 | 50 to 500 nM | 50 to 500 nM | 1 to 10 µM | 1 to 5 µM | – | – | O=S(=O)(Nc1cc(-c2ccccc2)c(F)cc1F)c1cc(F)cc(Cl)c1O [I-135, 3-chloro-N-[4,6-difluoro-[1,1-biphenyl]-3-yl]-5-fluoro-2-hydroxybenzene-1-sulfonamide] | –

The next lines start with the molecule.

Row | SMILES | IC50 (ACL [1]) | IC50 (ACL [2]) | IC50 (HepG2 cells [3]) | IC50 (HepG2 cells [4]) | IC50 (ACL [1]; [5]) | IC50 (ACL [2]; [6]) | IC50 (ACL [1]; read-out: ACL-ADP-Glo (IC50))
19 | COc1ccc(-c2ccc(F)cc2)cc1NS(=O)(=O)c1cc(Cl)cc(Cl)c1O [I-6, 3,5-dichloro-N-(4′-fluoro-4-methoxy-[1,1′-biphenyl]-3-yl)-2-hydroxybenzenesulfonamide] | 50 to 500 nM | 50 to 500 nM | > 10 µM | 1 to 5 µM | – | – | –
20 | O=S(=O)(NC(c1ccccc1)c1ccccc1)c1cc(Cl)cc(Cl)c1O [I-16, N-benzhydry1-3,5-dichloro-2-hydroxybenzenesulfonamide] | 500 to 20000 nM | 500 to 30000 nM | 1 to 10 µM | 1 to 5 µM | – | – | –
21 | COc1cc(-c2ccccc2)ccc1NS(=O)(=O)c1cc(Cl)cc(Cl)c1O [I-13, 3,5-dichloro-2-hydroxy-N-(3-methoxy-[1,1′-biphenyl]-4-yl)benzenesulfonamide] | 500 to 20000 nM | 500 to 30000 nM | 1 to 10 µM | 1 to 5 µM | – | – | –
22 | O=S(=O)(Nc1cc(-c2ccccc2)c(F)cc1F)c1cc(Cl)cc(Cl)c1O [I-41, 3,5-dichloro-N-(2,4-difluoro-5-phenylphenyl)-2-hydroxybenzene-1-sulfonamide] | – | – | > 10 µM | 1 to 5 µM | < 50 nM | < 50 nM | –
23 | COC(=O)c1cc(Cl)c(O)c(S(=O)(=O)Nc2cc(-c3ccccc3)c(F)cc2F)c1 [I-65, Methyl 3-chloro-5-[(2,4-difluoro-5-phenylphenyl)sulfamoyl]-4-hydroxybenzoate] | – | – | > 10 µM | 5 to 20 µM | – | < 50 nM | < 50 nM
24 | O=S(=O)(Nc1cc(-c2ccccc2)ccc1F)c1cccc(Cl)c1O [I-33, 3-chloro-N-(4-fluoro-[1,1′-biphenyl]-3-yl)-2-hydroxybenzenesulfonamide] | 50 to 500 nM | 500 to 30000 nM | > 10 µM | 1 to 5 µM | – | – | –
25 | COc1ccc(-c2ccccc2)cc1NS(=O)(=O)c1cc(Cl)cc(Br)c1O [I-20, 3-bromo-5-chloro-2-hydroxy-N-(2-methoxy-5-phenylphenyl)benzene-1-sulfonamide] | 50 to 500 nM | < 50 nM | 1 to 10 µM | 1 to 5 µM | – | – | –
26 | COc1ccc(-c2ccccc2)cc1NS(=O)(=O)c1cc(-c2ncco2)cc(Cl)c1O [I-59, 3-chloro-2-hydroxy-N-(2-methoxy-5-phenylphenyl)-5-(1,3-oxazol-2-yl)benzene-1-sulfonamide] | 50 to 500 nM | 50 to 500 nM | > 10 µM | 1 to 5 µM | – | – | –
27 | COC(=O)c1cc(Cl)c(O)c(S(=O)(=O)Nc2cc(-c3cccnc3)ccc2OC)c1 [I-48, Methyl 3-chloro-4-hydroxy-5-(N-(2-methoxy-5-(pyridin-3-yl)phenyl)sulfamoyl)benzoate] | 50 to 500 nM | 500 to 30000 nM | > 10 µM | 1 to 5 µM | – | – | –
28 | COc1ccc(-c2ccccc2)cc1NS(=O)(=O)c1cc(Br)cc(Cl)c1O [I-21, 5-bromo-3-chloro-2-hydroxy-N-(2-methoxy-5-phenylphenyl)benzene-1-sulfonamide] | 50 to 500 nM | 50 to 500 nM | 1 to 10 µM | 1 to 5 µM | – | – | –
29 | O=S(=O)(c1cc(Cl)cc(Br)c1O)N(Cc1ccccc1)c1cc(-c2ccccc2)ccc1F [I-36, N-benzyl-3-bromo-5-chloro-N-(4-fluoro-[1,1′-biphenyl]-3-yl)-2-hydroxybenzenesulfonamide] | 500 to 20000 nM | 500 to 30000 nM | 1 to 10 µM | 1 to 5 µM | – | – | –
30 | COc1ccc(-c2cccs2)cc1NS(=O)(=O)c1cc(Cl)cc(Cl)c1O [I-9, 3,5-dichloro-2-hydroxy-N-(2-methoxy-5-(thiophen-2-yl)phenyl)benzenesulfonamide] | 50 to 500 nM | 50 to 500 nM | 1 to 10 µM | 1 to 5 µM | – | – | –
